Drawing on ChEMBL document CHEMBL4825707, “Quantum mechanical study on the activation mechanism of human carbonic anhydrase VII cluster model with bis-histamine schiff bases and bis-spinaceamine derivatives” (Bioorg Med Chem, 2021), this text covers Ka for 8 compounds.

The target in the experiment is Carbonic anhydrase 7 (Homo sapiens) (UniProt P43166). In words: Activation of human carbonic anhydrase VII by stopped flow CO2 hydrase assay. The following applies: Brain, filed as activator.
Chain of Carbonic anhydrase 7 (Homo sapiens) (P43166 whole entry): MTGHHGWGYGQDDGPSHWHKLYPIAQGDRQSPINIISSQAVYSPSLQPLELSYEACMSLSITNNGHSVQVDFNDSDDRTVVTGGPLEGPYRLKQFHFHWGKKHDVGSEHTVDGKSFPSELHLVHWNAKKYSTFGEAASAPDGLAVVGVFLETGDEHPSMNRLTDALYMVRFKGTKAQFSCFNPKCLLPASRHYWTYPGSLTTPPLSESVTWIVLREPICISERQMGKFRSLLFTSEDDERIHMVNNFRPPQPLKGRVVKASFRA
For the compound `C(=N/CCc1c[nH]cn1)/c1ccccc1/C=N/CCc1c[nH]cn1`, the Ka worked out at 21.3 µM. As to `C(=N/CCc1c[nH]cn1)/c1ccc(/C=N/CCc2c[nH]cn2)o1`, the Ka was determined as 0.085 µM.

`C(=N/CCc1c[nH]cn1)/c1cccc(/C=N/CCc2c[nH]cn2)c1` showed a Ka of 18.7 µM. Take `c1nc2c([nH]1)C(c1ccc(C3NCCc4nc[nH]c43)o1)NCC2` (stereo not drawn): the Ka amounted to 0.035 µM.

Turning to `c1cc(C2NCCc3nc[nH]c32)cc(C2NCCc3nc[nH]c32)c1` (stereo not drawn), the Ka was 0.039 µM. On to `C(=N\CCc1c[nH]cn1)/c1ccc(/C=N/CCc2c[nH]cn2)cc1`, for which the Ka stood at 9.02 µM. As for `NCCc1c[nH]cn1`, the Ka amounted to 37.6 µM. With `c1nc2c([nH]1)C(c1ccc(C3NCCc4nc[nH]c43)cc1)NCC2` (stereo not drawn), the Ka was found to be 0.032 µM.
